Consider one substance from US8729034B2, “Pharmaceutical composition having virucidal and spermicidal activity” (priority 2007, dated 2014).

“Also recorded” adds a separate entry of the source. A value given as a limit tells only on which side of the number the result lay.

Assay [1] deals with human sperm. The experiment in a line: Live/dead staining (SYBR-14 / propidium iodide) of treated sperm. It is filed as cell-based. How it is done:
Live/dead staining kit (Invitrogen: Paisley, UK), using SYBR-14 in combination with propidium iodide (PI) was used for the purpose.
The SYBR-14 was prepared in anhydrous methyl sulfoxide (DMSO) at a concentration of 1 mg/ml. A working solution of SYBR-14 diluted 1:10 with DMSO was used for staining the sperm. The PI was dissolved in Tyrode's salt solution at 2 mg/ml.
The human sperm samples, pre-treated without (control) or with Ac-B (experimental) and Nonoxynol 9 (positive control) were incubated for 15 min at 36 degree C. before examination. […] The fluorescent staining of sperm was monitored and photographed with a Zeiss Axiophot epifluorescent microscope (Carl Zeiss Inc., Thornwood, N.Y.) equipped with a fluorescein isothiocyanate filter set (Zeiss #487909).
Viability of Ac-B-treated human spermatozoa was evaluated using a dual fluorescent live/dead staining kit (Invitrogen; Paisley, UK) consisting of SYBR 14 and propidium iodide (PI). PI cannot penetrate living cells but can bind to and stain cellular DNA in damaged cells giving them red fluorescence. On completion of staining reaction, proportionate distribution of green (live) and red (dead) stained spermatozoa was recorded using dual emission filter for SYBR14 and propidium iodide. In the control set all sperms were stained green but the Ac-B-treated spermatozoa (125 mcg/ml) were stained red.

For assay [2], the system named is rat spermatozoa. The experiment in a line: Hypo-osmotic swelling (HOS) test. It is filed as cell-based. How it is done:
A hypotonic solution was prepared by dissolving 0.735 g sodium citrate dehydrate and 1.351 g fructose in 100 ml distilled water (Milli Q). Aliquots of this solution kept frozen in −20 degree C. and thawed before use. For the test, 200 microliters of working suspension of rat spermatozoa was treated with one ml of Ac-B solution (at MEC) or BWW (as control) for 20 seconds followed by washing with BWW medium and centrifugation at 1000 rpm for 5 min. Finally the sperm pellet was resuspended in 0.1 ml BWW medium. One ml of prewarmed (37 degree C.) HOS solution was added to the suspension and incubated for one hour at 37 degree C. The incubated sperms were examined under a phase contrast microscope at ×400 magnification to observe the curling of tails. Two hundred spermatozoa were examined for each sample.

Assay [3] relates to human spermatozoa. The experiment in a line: Membrane lipid peroxidation, MDA by thiobarbituric acid (TBA) test. It is filed as cell-based. The settings on record: Ac-B 10-120 microgram per ml, 20 seconds. As for the experimental part: Membrane lipid peroxidation was estimated by the end point generation of malondialdehyde (MDA) determined by the thiobarbituric acid (TBA) test.
Suspension of human spermatozoa was prepared using the swim up technique, as described above. A series of dilutions (10, 20, 40, 60, 80, 100 and 120 microgram per ml) of Ac-B was prepared in BWW medium. From each test (Ac-B) solution, 800 microliters was taken out and mixed with 200 microliters of sperm suspension with a gentle vortex for 10 seconds. After 20 seconds of mixing, the treated spermatozoa were separated from the suspending medium by centrifugation. The pellet of washed spermatozoa was resuspended in physiological saline. A control set of untreated sperm was treated similarly. Membrane lipid peroxidation was estimated by the end point generation of malondialdehyde (MDA), determined by the thiobarbituric acid (TBA) test.
Briefly, diluted spermatozoa with or without treatment (250×10^6 cells in 1 ml) were mixed with 1 ml of cold 20% (wt/vol) trichloroacetic acid (TCA) to precipitate protein. The precipitate was pelleted by centrifugation (2000 rpm for 10 minutes), and 1 ml of the supernatant was incubated with 1 ml of 0.67% (wt/vol) TBA in a boiling water bath at 100 degree C. for 30 minutes. After cooling, the absorbance was determined by a spectrophotometer (UNICAM PU 8610 Kinetics spectrophotometer; Philips, Holland) at 535 nm.

The test system of assay [4] is NL4.3 virus. Description: Anti-HIV activity in P4 (Hela-CD4-LTR-β Gal) cells (p24 ELISA, X-gal staining). It is filed as cell-based, HIV-1. The settings on record: for Percentage inhibition of hiv growth in p4 cell line, Without Pretreatment: untreated virus; for Inhibition of viral transmission, Ac-B-treated virus: subsequent culture with or without Ac-B. As for the experimental part: P4 (Hela-CD4-LTR-β Gal) cells were infected with 0.05 MOI of NL4.3 virus pretreated without or with Ac-B at varying concentrations (1 hour at 37 degree C.) followed by incubation for 48 hours in the presence or absence of Ac-B at a concentration of 0.5 to 2.5 microgram per ml. Virus production was analyzed by ELISA of p24 antigen in the culture supernatant. Viral transmission in the transfected cells was evaluated by X-gal staining, in which an antiretroviral therapeutic drug, Azidothymidine (AZT) was used as positive control.

In the case of Acaciaside-B [Ac-B], in assay [1] (Ac-B 125 mcg/ml, green = live, red = dead), the “Live/dead staining colour of treated spermatozoa” value is on record as “stained red”. In assay [1] (human sperm pre-treated with Ac-B), the “Percentage of dead spermatozoa, Live/dead staining” value is on record as 92 (±5)%. Besides, in assay [2] (Ac-B at MEC for 20 seconds, 1 hour in HOS solution at 37 degree C), the “Response to HOS (HOS+), Hypo-osmotic Swelling Test” value was 0% (HOS+). In assay [2] (Ac-B treated), the “HOS reactivity (curling of tails) of treated spermatozoa” value is reported as “no HOS reactivity; also recorded: absence of curling”. Besides, in assay [3], the “Production of malondialdehyde (MDA)” value is reported as “increase in the production of MDA; also recorded: dose-dependent increased generation of malondialdehyde (MDA)”. The “Percentage inhibition of hiv growth in p4 cell line, Without Pretreatment” value worked out at 0% in assay [4] (Ac-B 0.5 microgram per ml, 48 hours); 0% in assay [4] (Ac-B 1 microgram per ml); 0% in assay [4] (Ac-B 2 microgram per ml); 0% in assay [4] (Ac-B 2.5 microgram per ml). Besides, the “Percentage inhibition of hiv growth in p4 cell line, Pretreatment with Ac-B” value in assay [4] (Ac-B 0.5 microgram per ml, virus pretreated 1 hour at 37 degree C, 48 hours) is reported as 76.53%; in assay [4] (Ac-B 1 microgram per ml, virus pretreated), 95.86%; in assay [4] (Ac-B 2 microgram per ml, virus pretreated) it was 96%; in assay [4] (Ac-B 2.5 microgram per ml, virus pretreated), 95.53%. For the same substance, the “Anti-HIV activity by X-gal staining, compared with AZT” value in assay [4] (Ac-B 1.0 microgram per ml (0.005 micromoles) vs AZT at 2 micromole) is on record as “comparable to or greater than that induced by AZT”. Also, the “Inhibition of viral transmission, Ac-B-treated virus” value in assay [4] (Ac-B greater than or equal to 1.5 microgram per ml) and in assay [4] (Ac-B ≧1.0 mcg/ml) was greater than 95% in each case. Besides, the “Inhibition of viral transmission, untreated virus” value in assay [4] (cells infected with untreated virus and cultured in the presence of Ac-B) is listed as “no inhibition of viral transmission”.
